The text below walks through data of patent EP0175304A2 (LABORATORI BALDACCI Spa, priority 1984, dated 1986).

One data set relates to growing Swiss mouse. The experiment in a line: acute toxicity (LD50 and toxic symptomatology), intraperitoneal administration. Format: in vivo. Conditions: ip. On the procedure:
(§1) The compounds of the invention were tested to evaluate their antiinflammatory, analgesic, antipyretic, platelet aggregation inhibition and cytostatic pharmacological effects. At the same time acute toxicity tests were made in the mouse with evaluation of LD 50 and of the symptomatology resulting from the treatment.
(§2) LD 50 and toxic symptomatology resulting from the treatment were evaluated in the growing Swiss mouse by intraperitoneal administration of the different compounds. The period of observation was extended for 10 days after administration and the value of the lethal dose was calculated by graphic interpolation of the number of deaths.
(§3) In Table II are given acute toxicity data (LD50 calculated with the graphic method) obtained in the mouse after intraperitoneal administration of the various compounds and the symptomatological observations attributable to the treatment.

Assay in data set [1]: as above
Format: in vivo. To be noted: in vivo, mouse, ip, 10 days observation, graphic interpolation; for LD50 at 10 days: Swiss. The procedure:
as §1, §2, §3

The next data set concerns MELANOMA B16-Fl cells. The experiment in a line: cytostatic action on melanoma cells. Format: cell-based. To be noted: compounds added in vitro in different concentrations. The procedure:
(§4) Cytostatic action was tested on cellular lines of Fibrosarcoma 3T3-B77 obtained by conversion of 3T3 Bald/C fibroblasts by Bratislava 77 strain RSV virus and on MELANOMA B16-Fl cells.
(§5) The influence of cellular proliferation induced by the addition in vitro of the compounds in different concentrations was evaluated.

The next data set concerns Fibrosarcoma 3T3-B77. The experiment in a line: cytostatic action on fibrosarcoma cell line. Format: cell-based. Conditions: compounds added in vitro in different concentrations. On the procedure:
as §4, §5

The next data set relates to TXB2. The experiment in a line: generation of TXB2 on whole blood after stimulation with collagen. To be noted: collagen 1 μg/ml. The format is cell-based. On the procedure:
(§6) Inhibition of platelet aggregation was evaluated in vitro according to the Born method with various inducers (arachidonic acid, adrenalin, collagen) using as the substrate human plasma from healthy donors. For some new compounds the generation of thromboxane B2 and 6-keto-PGF according to the De Fryen method was evaluated. Platelet aggregation was studied in two successive periods: immediately after addition of the derivative and after 15 minutes of incubation at 37°C.
The results obtained on the generation of TXB2 and 6-Keto-PGF evaluated to determine preliminarily the level of interaction on the biochemical. mechanisms underlying increased platelet reactivity are given in Table X.

The next data set has as its system platelet aggregation. The experiment in a line: platelet aggregation in vitro according to Born, inducer arachidonic acid. Format: cell-based, human. To be noted: inducer 1 mM arachidonic acid. The procedure:
as §6
On some of the compounds which are the object of the present invention differentiated independently of the magnitude of the antiinflamatory, analgesic and antipyretic effect, preliminary tests in vitro were performed under the experimental conditions set forth above for the purpose of evaluating their effect on platelet reactivity.

Data set [2] in a line: haematic and urine rates after oral treatment (HPLC). Format: in vivo. To be noted: rat, 50 mg/kg os. The procedure:
To preliminarily complete the pharmacological profile of the new series of compounds which are the object of the present invention and making reference to compound 8 a pharmacological test was performed in the rat and a subacute toxicity test was performed in the same animal species. Determination was performed with HPLC of the content in biological liquids.

For data set [3], the system named is growing male Wistar rat. The experiment in a line: antiinflammatory action, carrageenin-induced paw edema. Format: in vivo. To be noted: one dosage per product, 5-100 mg/kg, see column 'Dosage mg/kg ip'. In general terms: The carrageenan paw model is a standard test of acute inflammation.
For data set [4], the system named is growing male Wistar rat. The experiment in a line: antipyretic action, beer yeast-induced hyperthermia. To be noted: one dosage per product, 5-100 mg/kg, see column 'Dosage mg/kg ip'. Format: in vivo.
A further data set concerns male Wistar rat. The experiment in a line: analgesic action, Randall and Selitto method (carrageenin-inflamed paw). Format: in vivo. Conditions: one dosage per product, 5-100 mg/kg, see column 'Dosage mg/kg ip'.

Structures are written as SMILES. Like-named read-outs stand apart in the source and are kept apart here.

For orientation: LD50 means the dose expected to kill half of the subjects tested. `O=C(O)CCON=C1CCCC1` [compound 1]: the Symptomatology entry in the data set on growing Swiss mouse is “agitation”. This compound also showed an LD50 at 240 h in data set [1] of 200 mg/kg. Also, the “influence on cellular proliferation” value in the data set with MELANOMA B16-Fl cells and in the data set on Fibrosarcoma 3T3-B77 was “significant influence on cellular proliferation” throughout.
For the compound `O=C(O)CCON=C1CCCCC1` [compound 2], in the data set with growing Swiss mouse, the Symptomatology entry is “agitation”. This compound came in with a 50% lethal dose (LD50) at 240 h in data set [1] of 50 mg/kg. For the same compound, the “influence on cellular proliferation” value in the data set with MELANOMA B16-Fl cells and in the data set on Fibrosarcoma 3T3-B77 was “significant influence on cellular proliferation” in each case.
Take `CC(C)=NOCCC(=O)O` [compound 3]: in the data set on growing Swiss mouse, the Symptomatology entry is “passivity”. In data set [1], this compound came in with an LD50 at 240 h of 300 mg/kg.
The like results for `CCCC(CCC)=NOCCC(=O)O` [compound 4] were, in that order, “passivity” and 450 mg/kg.
With `CC(C)C(=NOCCC(=O)O)C(C)C` [compound 5], the Symptomatology result in the data set on growing Swiss mouse is given as “agitation”. Further, the LD50 at 10 days in data set [1] was 400 mg/kg.
Regarding `CC(=NOCCC(=O)O)c1ccccc1` [compound 6], the Symptomatology result in the data set on growing Swiss mouse was “passivity”. The median lethal dose (LD50) at 240 h in [1] was 600 mg/kg.
`O=C(O)CCON=C(c1ccccc1)c1ccccc1` [compound 7]: the Symptomatology entry in the data set with growing Swiss mouse is “passivity”. For the same compound, in [1], the LD50 at 240 h worked out at 300 mg/kg.
On to `O=C(O)CCO/N=C/c1ccccc1` [compound 8], for which the “Generation of TXB2” value in the data set on TXB2 (5.10^-4 M, 5 min, control 41.2) is reported as 11.7 (41.2) μg/ml; in the data set on TXB2 (5.10^-4 M, 15 min, control 26.5), 8.6 (26.5) μg/ml; with TXB2 (5.10^-4 M, 30 min, control 36.5), 8.5 (36.5) μg/ml; in the data set with TXB2 (5.10^-4 M, 60 min, control 65.8), 15.1 (65.8) μg/ml; in the data set with TXB2 (5.10^-5 M, 5 min, control 41.2), 54.3 (41.2) μg/ml; in the data set with TXB2 (5.10^-5 M, 15 min, control 26.5), 37.5 (26.5) μg/ml. Besides, the “Generation of TXB2” value with TXB2 (5.10^-5 M, 30 min, control 36.5) is 41.4 (36.5) μg/ml; with TXB2 (5.10^-5 M, 60 min, control 65.8) it was 68 (65.8) μg/ml. The “Percentage response variation AM” value is listed as -32.3% with platelet aggregation (5.10^-4 M) and -1.5% with platelet aggregation (5.10^-5 M). The “Percentage response variation Lagt” value with platelet aggregation (5.10^-4 M) is “+114.3%”; in the data set with platelet aggregation (5.10^-5 M), “+10.7%”. Also, the Symptomatology result in the data set on growing Swiss mouse is “passivity”. In addition, the median lethal dose (LD50) at 10 days in data set [1] stood at 600 mg/kg. Moreover, the “influence on cellular proliferation” value with MELANOMA B16-Fl cells and in the data set with Fibrosarcoma 3T3-B77 was “significant influence on cellular proliferation” in each case. Besides, the concentration at 1 h in data set [2] (plasma, 1 hour) stood at 180 µg/mL. The compound further came in with a concentration at 2 h in data set [2] (plasma, 2 hours) of 145 µg/mL. In data set [2] (plasma, 3 hours), this compound gave a concentration at 3 h of 142 µg/mL. The compound further yielded a concentration at 4 h in data set [2] (plasma, 4 hours) of 141 µg/mL. In [2] (plasma, 6 hours), this compound yielded a concentration at 6 h of 140 µg/mL. Besides, the concentration at 24 h was 90 µg/mL in data set [2] (plasma, read-out: Plasma) and 80 µg/mL in data set [2] (urine, read-out: Urine). The concentration at 48 h in data set [2] (plasma, read-out: Plasma) turned out to be 53 µg/mL; in data set [2] (urine, read-out: Urine), 17 µg/mL. In addition, the concentration at 8 h in data set [2] (urine, 8 hours) turned out to be 30 µg/mL.
`CC(=NOCCC(=O)O)c1ccc(Cl)cc1` [compound 11]: the Symptomatology entry in the data set with growing Swiss mouse is given as “agitation”. The compound also returned a 50% lethal dose (LD50) at 240 h in [1] of 250 mg/kg.
Take `COc1ccc(C(C)=NOCCC(=O)O)cc1` [compound 12]: the Symptomatology entry in the data set with growing Swiss mouse was “passivity”. Further, the median lethal dose (LD50) at 240 h in [1] amounted to 850 mg/kg.
Consider `O=C(O)CCON=C1c2ccccc2-c2ccccc21` [compound 13], for which, in the data set on growing Swiss mouse, the Symptomatology entry is given as “passivity”. The compound further yielded an LD50 at 240 h in data set [1] of 250 mg/kg. For the same compound, the “influence on cellular proliferation” value in the data set with MELANOMA B16-Fl cells and with Fibrosarcoma 3T3-B77 was “significant influence on cellular proliferation” in each case.
With `O=C(O)CCON=Cc1ccc(Cl)cc1` [compound 14], in the data set with growing Swiss mouse, the Symptomatology entry is “passivity”. The compound also yielded a 50% lethal dose (LD50) at 240 h in data set [1] of 350 mg/kg.
With `O=C(O)CCON=Cc1ccco1` [compound 15], the Symptomatology entry with growing Swiss mouse is “negligible”. Also, the 50% lethal dose (LD50) at 240 h in [1] was 1500 mg/kg.
On to `COc1ccc(OC)c(C=NOCCC(=O)O)c1` [compound 16], for which, in the data set with platelet aggregation (5.10^-4 M), the “Percentage response variation AM” value is on record as -13.3% and the “Percentage response variation Lagt” value is “+28.0%”. Besides, in the data set on platelet aggregation (5.10^-5 M), the “Percentage response variation AM” value is reported as -16.1% and the “Percentage response variation Lagt” value is given as -8.0%. In addition, in the data set on growing Swiss mouse, the Symptomatology result is “passivity”. This compound also had an LD50 at 240 h in data set [1] of 600 mg/kg.
In the case of `O=C(O)CCON=Cc1ccccc1Cl` [compound 17], in the data set on platelet aggregation (5.10^-4 M), the “Percentage response variation AM” value was -79.8% and the “Percentage response variation Lagt” value is given as “+273.9%”. Further, in the data set on platelet aggregation (5.10^-5 M), the “Percentage response variation AM” value is -33.3% and the “Percentage response variation Lagt” value is listed as “+60.0%”. The Symptomatology entry with growing Swiss mouse is recorded as “passivity”. This compound also yielded a 50% lethal dose (LD50) at 240 h in data set [1] of 400 mg/kg.
With `O=C(O)CCON=Cc1cccc(Cl)c1` [compound 18], the Symptomatology entry in the data set with growing Swiss mouse is “passivity”. The LD50 at 240 h in [1] came to 325 mg/kg.
Consider `O=C(O)CCO/N=C/c1ccc2c(c1)OCO2` [compound 21], for which, in the data set on growing Swiss mouse, the Symptomatology result is listed as “passivity”. This compound displayed an LD50 at 240 h in data set [1] of 525 mg/kg.
Take `O=C(O)CCO/N=C/c1cccs1` [compound 22]: in the data set on platelet aggregation (5.10^-4 M), the “Percentage response variation AM” value is “+80.5%” and the “Percentage response variation Lagt” value was “+276.0%”. In the data set on platelet aggregation (5.10^-5 M), the “Percentage response variation AM” value is recorded as “+38.3%” and the “Percentage response variation Lagt” value is reported as “+12.0%”. In the data set with growing Swiss mouse, the Symptomatology entry is reported as “passivity”. Also, in data set [1], the 50% lethal dose (LD50) at 240 h was determined as 1800 mg/kg.
As to `O=C(O)CCO/N=C\c1ccccc1` [compound 23], in the data set with growing Swiss mouse, the Symptomatology result is “passivity”. In data set [1], this compound gave an LD50 at 10 days of 510 mg/kg. Moreover, the “influence on cellular proliferation” value in the data set on MELANOMA B16-Fl cells and in the data set with Fibrosarcoma 3T3-B77 was “significant influence on cellular proliferation” each time.
On to `CC(CO/N=C/c1ccccc1)C(=O)O` (stereo not drawn) [compound 24], for which the “Antiinflammatory action (maximum % response in first 4 hours)” value with growing male Wistar rat [3] is reported as 35%. The “Antipyretic action (maximum % response in first 4 hours)” value in the data set with growing male Wistar rat [4] was 40%. In addition, the “Analgesic action (maximum % response in first 4 hours)” value in the data set on male Wistar rat turned out to be 46%. In addition, the Symptomatology entry in the data set on growing Swiss mouse was “passivity”. Also, the LD50 at 240 h in data set [1] was 750 mg/kg. In addition, the “influence on cellular proliferation” value in the data set on MELANOMA B16-Fl cells and in the data set on Fibrosarcoma 3T3-B77 was “significant influence on cellular proliferation” each time.
With `CCC(CO/N=C/c1ccccc1)C(=O)O` (stereo not drawn) [compound 25], the “Antiinflammatory action (maximum % response in first 4 hours)” value in the data set on growing male Wistar rat [3] is 35%. Moreover, the “Antipyretic action (maximum % response in first 4 hours)” value in the data set with growing male Wistar rat [4] was 35%. Also, the “Analgesic action (maximum % response in first 4 hours)” value in the data set on male Wistar rat stood at 40%. Besides, the Symptomatology entry in the data set with growing Swiss mouse is given as “passivity”. The compound further had a 50% lethal dose (LD50) at 240 h in data set [1] of 800 mg/kg. Moreover, the “influence on cellular proliferation” value in the data set on MELANOMA B16-Fl cells and in the data set on Fibrosarcoma 3T3-B77 was “significant influence on cellular proliferation” each time.
